The values that follow come from PubChem BioAssay (NCI).

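Each compound was tested at five concentrations against cells in 96-well plates for 48 hours. The concentration for full growth arrest is given as TGI.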 Bounds are passed on as bounds.

What all share (experiment): growth of human tumour cells (NCI), 48 h
Test [1] has as its system 786-0 renal.
Test [2] deals with CAKI-1 renal.
The test system of test [3] is COLO 205 colon.
In test [4] the test system is HOP-62 NSCLC.
For test [5], the system named is HS 578T breast.
Test [6] relates to K-562 leukemia.
In test [7] the test system is NCI-H460 lung.
Test [8] relates to OVCAR-3 ovarian.
For test [9], the system named is OVCAR-5 ovarian.
Test [10] relates to PC-3 prostate.
Test [11] deals with RPMI-8226 leukemia.
Test [12] deals with SF-268 CNS.
In test [13] the test system is SF-539 CNS.
For test [14], the system named is SK-OV-3 ovarian.
Test [15] has as its system SN12C renal.
Test [16] relates to SNB-19 CNS.
Test [17] relates to U251 CNS.

Regarding `C=C=C(CC1CCCCC1=O)S(=O)(=O)c1ccccc1` (stereo unspecified), the TGI in [1], in test [2], in test [3], in test [4], in [5] and in [6] was > 10 µM in each case. For the same compound, the TGI is > 10 µM in test [7]; > 10 µM in test [8]; > 10 µM in test [9]; > 10 µM in test [10]; > 4.76 µM in [11]; > 10 µM in test [12]. Moreover, the TGI in [13], in test [14], in test [15], in test [16] and in [17] was > 10 µM throughout.
Consider `CC(O)(Cc1ccccc1C#N)Cc1ccccc1C#N`, for which the TGI in test [1], in [2], in test [3], in test [4], in test [5] and in [6] was > 100 µM each time. Besides, the TGI in [7], in [8], in test [9], in test [10], in test [12] and in test [13] was > 100 µM throughout. For the same compound, the TGI in test [14], in test [15], in test [16] and in test [17] was > 100 µM each time.
Consider `O=C(O)CCCC(=O)Nn1c(Cc2ccc(Cl)cc2)n[nH]c1=O`, for which the TGI in [1], in test [2], in test [3], in [4], in test [5] and in [6] was > 100 µM each time. The TGI in test [8], in [9], in test [10], in test [11], in test [12] and in test [14] was > 100 µM in each case. Also, the TGI in [15] and in test [17] was > 100 µM throughout.
Turning to `CCOC(=O)c1nc2ccc(C(F)(F)F)cc2nc1NCc1ccc(OC)cc1`, the TGI in [1], in [2], in test [3], in test [4], in test [5] and in test [6] was > 100 µM each time. Moreover, the TGI in [7], in test [8], in test [9], in test [10], in [11] and in test [12] was > 100 µM in each case. In addition, the TGI in [13], in test [14], in test [16] and in test [17] was > 100 µM in each case.
On to `Cc1ccc(S(=O)(=O)NC(=O)NCCc2cnc[nH]2)cc1`, for which the TGI in test [1], in test [2], in [3], in [4], in [5] and in test [6] was > 100 µM throughout. Further, the TGI in [7], in test [8], in test [9], in test [10], in test [11] and in [12] was > 100 µM throughout. For the same compound, the TGI in test [13], in test [14], in test [16] and in test [17] was > 100 µM in each case.
Take `Cc1cc2c(c(C=Nc3ccccc3O)c1)OC1(C=C2)Oc2ccccc2C(=O)N1C` (stereo unspecified): the TGI was 37.5 µM in [1]; 42.2 µM in [2]; 54.5 µM in test [3]; 66.3 µM in [4]; 55.3 µM in test [5]; 62.2 µM in [6]. Also, the TGI in [7] was determined as 30.6 µM; in test [8] it was 29.4 µM; in test [9], 30 µM; in test [10] it was 48.7 µM; in [11] it was 84.3 µM; in test [12], 36.3 µM. In addition, the TGI was 58.4 µM in test [14], 46.5 µM in [15], > 100 µM in test [16] and 41 µM in [17].
Regarding `COc1ccccc1NC(=S)N/N=C/c1c(C)n(C)n(-c2ccccc2)c1=O`, the TGI in test [1], in test [2], in test [3], in test [4], in [5] and in [6] was > 100 µM throughout. For the same compound, the TGI in test [7], in [10], in [11], in test [12], in test [13] and in test [14] was > 100 µM in each case. The TGI in test [16] and in [17] was > 100 µM in each case.
In the case of `O=C1/C(=C\Oc2ccc(F)cc2)N2CCC1CC2`, the TGI in [1], in [2], in test [3], in [4], in [5] and in [6] was > 100 µM in each case. The TGI in test [8], in [9], in [10], in test [11], in [12] and in test [13] was > 100 µM in each case. The TGI in [14], in [15], in [16] and in test [17] was > 100 µM in each case.
Regarding `O=c1[nH]c(Cc2ccccc2)nc2c1sc1nc3ccccc3n12`, the TGI in test [1], in test [2], in test [3], in [5], in [6] and in test [7] was > 100 µM each time. The TGI in test [8], in [9], in test [10], in test [11], in test [12] and in [13] was > 100 µM throughout. For the same compound, the TGI in test [14], in [15], in test [16] and in [17] was > 100 µM throughout.
